{
  "source": "patent US20060270737A1",
  "about": "“Menthol propyleneglycol-carbonate and analogs thereof as insect pest repellents” (priority 2003, published 2006)",
  "format_in_all_cases": "in vivo",
  "key": {"[1]": {"system": "Adult mosquitoes (Culex quinquefasciatus)", "assay": "Mosquito chamber test, protection time until first bite on lotion-coated arms of human volunteers", "details": "for Protection Time: 5 wt % in lotion base, elbow to fingertips of human volunteers, time to first bite, mean ± SEM, 4 volunteers", "experimental": "Adult mosquitoes (Culex quinquefasciatus) were kept inside a screened chamber measuring 2 ft×2 ft×2 ft at a density of 200 mosquitoes per chamber. The mosquitoes are aged 3 to 10 days after emergence from larvae and were starved for 24 hours prior to each test. Each of the test compounds (supplied as a gift from Symrise GmbH & Co Kg, Holzminden, Germany) was added to a commercial lotion base (Cresto Laboratories, […], Philippines) and thoroughly mixed into the lotion using an electronic mixer. The resulting formulation was applied from the elbow to the tip of the fingers of human volunteers. The coated arms of the volunteers were then inserted, in turn, inside the chamber up to the elbow. The protection time was determined for each formulation as the length of time until a mosquito had taken its first bite, after which the test was terminated. The data in Table 1 show the protection time determined in this manner for the compounds tested."}, "mosquitoes": {"system": "mosquitoes", "assay": "Standard mosquito chamber test of halloysite-entrapped and free active in aloe vera cream", "details": "20% w/w in aloe vera cream, forearm, 3 human volunteers; in min", "experimental": "This study was conducted to evaluate the suitability of encapsulation or entrapment as a means of reducing the amount of racemic menthol propyleneglycol-carbonate required to produce a repellent effect and to provide a means of protecting the active material from degradation by other excipients in the formulation or from high temperatures associated with manufacturing, as in the case of impregnation of textile materials. The halloysite clay represents an example of many other suitable encapsulation materials available in the industry and is not intended as a limitation of the scope of this invention.\nHalloysite clay is a naturally derived, nontoxic, biodegradable material typically used in the manufacture of porcelain, bone china and fine china. U.S. Pat. No. 5,651,976 to Price and Gaber describes a new method of controlled release using microtubules made from halloysite clay. […] The halloysite entrapped racemic menthol propyleneglycol-carbonate used in this study was supplied as a gift from Federal Technology Group (Bozeman, Mont.), with a total entrapped active material determined at 17% of the total weight. […] Protection time was measured as the time at which the human subject experienced the first mosquito bite. […]"}, "[2]": {"system": "milk termite, Coptotermes vastator", "assay": "Inhibition of termite infestation, weight loss of impregnated soft wood", "experimental": "The milk termite, Coptotermes vastator, is a pest found in tropical and sub-tropical areas. To test the efficacy of racemic menthol propyleneglycol-carbonate, this chemical was dissolved in 95% ethanol at concentration of 10% w/w and pieces of pre-weighed soft wood were immersed in the solution for 24 hours. After impregnation, the wood was allowed to dry in air to remove the ethanol which has a lower flash point. The dry wood was reweighed to determine the total amount of racemic menthol propyleneglycol-carbonate absorbed into the wood. The weight of racemic menthol propyleneglycol-carbonate absorbed was 26 milligrams per gram of wood. Controls were prepared using wood impregnated with 95% ethanol alone.\nThe wood test samples were placed on top of a fallen jackfruit tree (Artocarpus heterophylla) heavily infested by termites under ambient, natural, outdoor conditions for a period of 2 months. At the end of the test period, the wood samples were cleaned of debris and termites, dried in the sun and weighed. The degree of wood preservation was determined by the amount of weight loss during the test period."}, "fire ants (s. invicta)": {"system": "fire ants (s. invicta)", "assay": "Fire ant bait protection test", "details": "50% (v/v) in ethanol sprayed on peanut butter bait, 4 replicates, terminated after 5 hours", "experimental": "In this study, the repellent effect of racemic menthol propyleneglycol-carbonate was examined by preparing a solution of this chemical in ethanol at concentration of 50% (v/v). The solution was sprayed with a pump spray dispenser ([…] & Associates, Duarte, Calif.) to a bait composed of sugary food (in this case, peanut butter). The control was composed of ethanol alone. This study was conducted in Fort Pierce, Fla. The protection time was measured as the time when the first ant started consuming the bait. […] The experiment was terminated after 5 hours of observation. Each study group was composed of 4 replicates. In the control which was sprayed with ethanol alone, the fire ants (s. invicta) were seen on the bait within 3 minutes after the spray was applied."}, "[3]": {"system": "stable fly or dog fly (Stomoxys calcitrans)", "assay": "Stable flies landing on sprayed meat bait", "experimental": "To test the effectiveness of racemic menthol propylene glycol carbonate, a 50% solution was prepared in 95% ethanol and sprayed using a standard spray bottle. Stable flies were collected by placing a screened cage containing (Peaceful Valley Farm Supply, Grass Valley, Calif.) bait beside a horse stable one day prior to the test. Approximately 200 stable flies were collected from each cage. The test bait comprising pieces of beef was placed in an aluminum pan at the bottom of the collecting cage. The test was conducted using meat sprayed with 50% racemic menthol propyleneglycol-carbonate solution, with a control composed of meat sprayed with ethanol alone. The test was conducted in duplicate. The number of stable flies landing and feeding on the meat was counted periodically."}, "[4]": {"system": "red ant (pharaoh ant, Monomorium pharaonis)", "assay": "Ant repellent test, impregnated filter paper barrier around table leg", "details": "mean ± SEM of 5 tests", "experimental": "The red ant (pharaoh ant, Monomorium pharaonis) was selected for this ant repellent test since it has a worldwide distribution and is known to be a household pest. Red ants are attracted to the smell of food. The attractant in this experiment was a piece of chocolate, which was placed on a tabletop 5 hours before the test. Within 2 hours after being released on the ground around the table, the red ants established a route from the ground up the table legs. At the 5th hour, a filter paper impregnated with racemic menthol propyleneglycol-carbonate at two concentrations was placed around the middle portion of the table leg. The test compound was dissolved in ethanol and impregnated into a pre-weighed, 2 inch by 7 inch piece of filter paper. After complete evaporation of ethanol, the filter paper was weighed and the final weight of the test compound was determined per cm^2 of the filter paper. The control employed was the same filter paper soaked with ethanol only. The time for the first ant to cross the filter paper barrier was determined."}, "mosquito biting activity": {"system": "mosquito biting activity", "assay": "Mosquito chamber protection time of combinations with DEET and citronella product (Natrapel)", "details": "both at 10% w/w in hydrophilic ointment base, arms of 3 human volunteers", "experimental": "To test the effectiveness of menthol propyleneglycol-carbonate(menthol propyleneglycol-carbonate) in enhancing the effect of the known insect repellent DEET against mosquito biting activity, this study was undertaken by combining racemic menthol propyleneglycol-carbonate with DEET (purchased from Sigma-Aldrich). The two chemicals were added at 10% w/w in an Hydrophilic ointment base (E. Fougera & Co., Melville, N.Y.) and applied on the exposed arms of human volunteers. The treated arms were inserted inside a mosquito chamber and the protection time was determined. […] The recorded data represents the mean and standard error of 3 human volunteers.\nTo test the effectiveness of menthol propyleneglycol-carbonate in enhancing the effect of another known mosquito repellent product, an experiment was undertaken in Which menthol propyleneglycol-carbonate was added at a concentration of 10% w/w to a citronella-based product (Natrapel) manufactured by Tender Corporation (Littleton, N.H.)."}, "mosquito": {"system": "mosquito", "assay": "Outdoor mosquito tests, protection time on exposed arms of human volunteers", "details": "outdoors from 3:00 PM, 3 human volunteers per group, test chemical 10% w/w in ointment base, ± SEM", "experimental": "To validate the efficacy of menthol propyleneglycol-carbonate under ambient conditions in nature, this chemical was mixed in an ointment base at 10% w/w and applied to the exposed arms of human volunteers who remained outdoors during the peak period of mosquito biting, beginning at 3:00 PM. The protection time was recorded and compared with that obtained from human volunteers using a commercially available insect repellent (OFF! Skintastic; 7% DEET) manufactured by SC Johnson & Sons, Inc. (Racine, Wis.). Control ointment consisted of Fougera ointment without any active ingredient. The protection time was determined for 3 human volunteers for each test group."}},
  "data": [
    {"compound": "CC1CCC(C(C)C)C(OC(=O)OCCCCCCCCCO)C1", "note": "(stereo not shown) [menthyl-9-hydroxynonyl-carbonate]", "values": [
      {"measurement": "Protection Time", "setting": "[1]", "result": "79 ± 14", "unit": "min"}
    ]},
    {"compound": "isopulegol propyleneglycol-carbonate", "values": [
      {"measurement": "Protection Time", "setting": "[1]", "result": "152 ± 36", "unit": "min"}
    ]},
    {"compound": "C=C(C)C1CCC(C)CC1O", "note": "(single isomer, unassigned; (-)) [(−)-isopulegol, 5-methyl-2-(1-methylethenyl) cyclohexanol, reference compound]", "values": [
      {"measurement": "Protection Time", "setting": "[1]", "result": "56 ± 7", "unit": "min"}
    ]},
    {"compound": "CC(O)COC(=O)OC1CC(C)CCC1C(C)C", "note": "(racemic) [racemic menthol propyleneglycol-carbonate]", "values": [
      {"measurement": "PROTECTION TIME (Mean ± SEM)", "setting": "mosquitoes", "result": "93 ± 6"},
      {"measurement": "termite consumption of the wood", "setting": "[2]; impregnated wood, 2 months", "result": "completely prevented from consuming the wood"},
      {"measurement": "Percent of weight loss", "setting": "[2]; soft wood impregnated from 10% w/w ethanol solution (26 mg per gram of wood), 2 months outdoors on termite-infested tree", "result": "0.8 ± 0.4", "unit": "%"},
      {"measurement": "Protection Time", "setting": "fire ants (s. invicta)", "result": "at least 5 hours"},
      {"measurement": "Protection Time", "setting": "fire ants (s. invicta); listed as Racemic menthol propyleneglycol-carbonate", "result": ">5", "unit": "h"},
      {"measurement": "time by which the spray lost its efficacy", "setting": "[3]; from the initial single application of 50% spray", "result": "≤ 9", "unit": "h"},
      {"measurement": "time the spray remained very effective", "setting": "[3]; single application of 50% spray on meat", "result": "at least 5 hours"},
      {"measurement": "Time to cross barrier", "setting": "[4]; 15 mg/cm^2 on filter paper", "result": "63 ± 18", "unit": "min"},
      {"measurement": "Time to cross barrier", "setting": "[4]; 30 mg/cm^2 on filter paper", "result": "760 ± 76", "unit": "min"},
      {"measurement": "protection time / repellent effect of combination with DEET versus either compound alone (FIG. 3)", "setting": "mosquito biting activity", "result": "greater protection time"},
      {"measurement": "Protection Time", "setting": "[1]", "result": "283 ± 17", "unit": "min"},
      {"measurement": "effectiveness in preventing mosquito bites relative to menthol or isopulegol", "setting": "[1]; from Table I protection times, 5 wt % in lotion", "result": "almost nine times more effective"},
      {"measurement": "inhibitory effect on mosquito bite (FIG. 1)", "setting": "[1]; lotion containing various concentrations", "result": "dose dependent manner"},
      {"measurement": "Protection Time", "setting": "mosquito", "result": "227 ± 19", "unit": "min"}
    ]},
    {"compound": "CC1CCC(C(C)C)C(O)C1", "note": "(stereo not shown) [1-menthol, 1-5-methyl-2-isopropyl cyclohexanol, reference compound]", "values": [
      {"measurement": "Protection Time", "setting": "[1]", "result": "30 ± 9", "unit": "min"}
    ]},
    {"compound": "CC1CCC(C(C)C)C(OCC(O)CO)C1", "note": "(stereo not shown) [menthoxy-propane-1,2-diol]", "values": [
      {"measurement": "Protection Time", "setting": "[1]", "result": "68 ± 17", "unit": "min"}
    ]}
  ]
}
